{"source": "patent US7816332B2", "about": "“Stable aqueous solution of natamycin fungicide” (DSM IP Assets B.V., priority 2003, dated 2010)", "key": {"[1]": {"test": "Dissolution of natamycin when preparing solutions, with controls (Example 1)", "type": "physicochemical", "method": "(§1) • An ethanolic aqueous solution having a pH of 12.8 was prepared by mixing 60 ml of a 0.04 N sodium hydroxide solution and 40 ml of 96% ethanol. • While stirring vigorously, 1 g of natamycin was added. The natamycin dissolved within 2 minutes. • Immediately after dissolution, the obtained concentrated natamycin solution was added to 20 l of a 0.01 M citrate buffer solution. A solution containing 57 ppm of natamycin and 0.2% of ethanol with a pH of 6.5 was obtained. • In a similar manner, a solution containing 101 ppm of natamycin and 0.4% of ethanol and a solution containing 202 ppm of natamycin and 0.8% of ethanol was obtained by adding the concentrated natamycin solution to […] of a 0.01 M citrate buffer respectively. Preparation of the Natamycin Solutions (2)\nControls • 1 g of natamycin was added to a neutral ethanolic aqueous system containing up to 40% of ethanol."}, "[2]": {"test": "Stability of buffered natamycin solutions on storage, HPLC (Example 1)", "type": "physicochemical", "conditions": "for amount of natamycin after storage (HPLC): 24 hours at 21° C.", "method": "as §1\nStability of the Solutions • The amount of natamycin in the compositions (1) was determined after 24 hours storage at 21° C. The amount of natamycin was determined using well-known methods (HPLC) and shown to be 57, 97 and 196 ppm respectively. Hardly any loss of activity was observed after 9 days storage at 6° C. The concentration of natamycin was 49, 100 and 170 ppm respectively. Even after storage for 9 days at 21° C., the concentration of natamycin of the composition containing 101 ppm at t=0 was 99 ppm."}, "[3]": {"test": "Stability of non-buffered natamycin solutions on storage (Example 2)", "type": "physicochemical", "method": "This Example describes the rapid preparation of a stable aqueous composition of natamycin in a non-buffered aqueous system with enhanced solubility. • A concentrated natamycin solution was prepared as described in Example 1 (1). • However, after diluting the concentrated natamycin solution in water, the pH was adjusted to 6.4-6.6 using HCL. Finally, solutions containing 101 and 202 ppm of natamycin were obtained. • The amount of natamycin in the compositions was determined after 24 hours storage at 21° C. The concentration of natamycin was 99 and 192 ppm respectively. Hardly any loss of activity was observed after 9 days storage at 6° C. The concentration of natamycin was 98 and 198 ppm respectively. Even after storage for 9 days at 21° C. the concentration of natamycin in the composition containing 101 ppm at t=0 was 82 ppm. […] The amount of dissolved natamycin of these solutions is at least 6 times higher than the maximum solubility in water at the same pH values"}, "[4]": {"tested_on": "most yeasts", "conditions": "cited from earlier work"}, "[5]": {"tested_on": "most foodborne fungi", "conditions": "cited from earlier work"}, "[6]": {"conditions": "cited from earlier work"}}, "note": "Like-named read-outs stand apart in the source and are kept apart here."}
{"smiles": "C[C@@H]1C/C=C/C=C/C=C/C=C/[C@H](O[C@@H]2O[C@H](C)[C@@H](O)[C@H](N)[C@@H]2O)C[C@@H]2O[C@](O)(C[C@@H](O)C[C@H]3O[C@@H]3/C=C/C(=O)O1)C[C@H](O)[C@H]2C(=O)O", "note": "[natamycin]", "values": [{"measurement": "time to dissolve", "setting": "[1]; 1 g natamycin in 100 ml ethanolic aqueous solution of pH 12.8 (0.04 N NaOH / 96% ethanol 60:40), vigorous stirring", "value": "≤ 2", "unit": "min"}, {"measurement": "dissolution (control)", "setting": "[1]; 1 g natamycin in neutral ethanolic aqueous system containing up to 40% ethanol, a few hours of stirring", "value": "not fully dissolved"}, {"measurement": "dissolution (control)", "setting": "[1]; 200 ppm natamycin in buffered aqueous system, solvent not present", "value": "did not dissolve"}, {"measurement": "dissolution (control)", "setting": "[1]; 200 ppm natamycin, solvent present, without first raising the pH to 12.8", "value": "did not dissolve"}, {"measurement": "dissolution (control)", "setting": "[1]; same procedure as Example 1 without adding a solvent", "value": "did not dissolve"}, {"measurement": "amount of dissolved natamycin relative to maximum solubility in water at the same pH", "setting": "[2]; Example 1 buffered solutions", "value": "at least 6 times"}, {"measurement": "amount of natamycin after storage (HPLC)", "setting": "[2]; solution with 57 ppm at t=0, 0.2% ethanol, citrate buffer pH 6.5", "value": 57, "unit": "ppm"}, {"measurement": "concentration of natamycin after storage", "setting": "[2]; solution with 57 ppm at t=0, 0.2% ethanol, citrate buffer, 9 days at 6° C.", "value": 49, "unit": "ppm"}, {"measurement": "amount of natamycin after storage (HPLC)", "setting": "[2]; solution with 101 ppm at t=0, 0.4% ethanol, citrate buffer", "value": 97, "unit": "ppm"}, {"measurement": "concentration of natamycin after storage", "setting": "[2]; solution with 101 ppm at t=0, 0.4% ethanol, citrate buffer, 9 days at 6° C.", "value": 100, "unit": "ppm"}, {"measurement": "concentration of natamycin after storage", "setting": "[2]; solution with 101 ppm at t=0, citrate buffer, 9 days at 21° C.", "value": 99, "unit": "ppm"}, {"measurement": "amount of natamycin after storage (HPLC)", "setting": "[2]; solution with 202 ppm at t=0, 0.8% ethanol, citrate buffer", "value": 196, "unit": "ppm"}, {"measurement": "concentration of natamycin after storage", "setting": "[2]; solution with 202 ppm at t=0, 0.8% ethanol, citrate buffer, 9 days at 6° C.", "value": 170, "unit": "ppm"}, {"measurement": "amount of dissolved natamycin relative to maximum solubility in water at the same pH", "setting": "[3]; Example 2 non-buffered solutions", "value": "at least 6 times"}, {"measurement": "concentration of natamycin after storage", "setting": "[3]; non-buffered solution with 101 ppm at t=0, pH 6.4-6.6 (HCl), 24 hours at 21° C.", "value": 99, "unit": "ppm"}, {"measurement": "concentration of natamycin after storage", "setting": "[3]; non-buffered solution with 101 ppm at t=0, 9 days at 6° C.", "value": 98, "unit": "ppm"}, {"measurement": "concentration of natamycin after storage", "setting": "[3]; non-buffered solution with 101 ppm at t=0, 9 days at 21° C.", "value": 82, "unit": "ppm"}, {"measurement": "concentration of natamycin after storage", "setting": "[3]; non-buffered solution with 202 ppm at t=0, pH 6.4-6.6 (HCl), 24 hours at 21° C.", "value": 192, "unit": "ppm"}, {"measurement": "concentration of natamycin after storage", "setting": "[3]; non-buffered solution with 202 ppm at t=0, 9 days at 6° C.", "value": 198, "unit": "ppm"}, {"measurement": "minimal inhibitory concentration", "setting": "[4]", "value": "less than 5 ppm"}, {"measurement": "minimal inhibitory concentration", "setting": "[5]", "value": "less than 10 ppm"}, {"measurement": "maximum solubility", "setting": "[6]; acetone/water (4:1) system", "value": 110, "unit": "ppm"}, {"measurement": "solubility", "setting": "[6]; ethanol/water (4:1) system", "value": 220, "unit": "ppm"}, {"measurement": "solubility", "setting": "[6]; pure ethanol", "value": 40, "unit": "ppm"}, {"measurement": "solubility in water", "setting": "[6]; water at neutral pH levels", "value": 30, "unit": "ppm"}]}
